From patent US6943196B1, “NF-κB inhibitor comprising phenylmethyl benzoquinone as the active ingredient” (Daiichi Suntory Pharma Co., Ltd., priority 1998, dated 2005)

Tests used:
NO production = NO production of LPS-stimulated RAW264.7 cells (Griess' method); assay type: cell-based; settings: Mus musculus, LPS (10 μg/ml), NO in culture medium after 24 hours
Text: (§1) When various cells are stimulated with LPS, NF-κB is activated which results in the expression and induction of proteins represented by […] and TNF-α, and thereby the cells start to produce NO and TNF-α.
The Griess' method utilizing a diazo reaction has been known as a method for indirectly knowing that a cell actually produces NO. In the Griess' method, the Griess' reagent in which naphthylethylenediamine and sulfanilic acid have been mixed is reacted with NO2 ion in the culture medium, and the color development thereof is measured by absorbance at 540 nm. The amount of NO accumulated in the cell culture medium after 24 hours was measured in this method with a result that the production of NO released from LPS (10 μg/ml)-stimulated RAW264.7 cells (ATCC, TIB-71) derived from macrophage is suppressed by the compound obtained in Example 4 (FIG. 4A).
(§2) The inhibitory activity of the compounds shown in the Examples is expressed as an IC50 value.

TNF-α production = TNF-α production of LPS-stimulated RAW264.7 cells (ELISA); assay type: cell-based; settings: Mus musculus, LPS (10 μg/ml) for 4 hours
Text: as §1, §2

| SMILES | IC50 (NO production) [µM] | IC50 (TNF-α production) [µM] |
| --- | --- | --- |
| COC1=C(OC)C(=O)C(Cc2ccc(CCC(=O)N[C@@H](C)c3ccccc3)cc2)=C(C)C1=O [Example 120] | 7 | 11 |
| COC1=C(OC)C(=O)C(Cc2ccc(CCC(=O)NC(C)C)cc2)=C(C)C1=O [Example 9, N-[3-[4-(5,6-dimethoxy-3-methyl-1,4-benzoquinon-2-ylmethyl)phenyl]propionyl]isopropylamine] | 10 | 16 |
| COC1=C(OC)C(=O)C(Cc2cccc(CCC(=O)NC(C)C)c2)=C(C)C1=O [Example 35, N-[3-[3-(5,6-dimethoxy-3-methyl-1,4-benzoquinon-2-ylmethyl)phenyl]propioyl]isopropylamine] | 19 | 19 |
| COC1=C(OC)C(=O)C(Cc2ccc(CCC(=O)N3CCC(C(C)=O)(c4ccccc4)CC3)cc2)=C(C)C1=O [Example 168] | 17 | 17 |
| COC1=C(OC)C(=O)C(Cc2ccc(CCC(=O)Nc3ccc(OC)c(OC)c3)cc2)=C(C)C1=O [Example 103] | 31 | 31 |
| COC1=C(OC)C(=O)C(Cc2ccc(CCC(=O)Nc3ccc(OC)cc3)cc2)=C(C)C1=O [Example 94] | 9 | 11 |
| COC1=C(OC)C(=O)C(Cc2ccc(CCC(=O)N3CCSCC3)cc2)=C(C)C1=O [Example 4, N-[3-[4-(5,6-dimethoxy-3-methyl-1,4-benzoquinon-2-ylmethyl)phenyl]propionyl]thiomorpholine] | 21 | 21 |
| COC1=C(OC)C(=O)C(Cc2ccc(CC(=O)N3CCOCC3)cc2)=C(C)C1=O [Example 53, N-[4-(5,6-dimethoxy-3-methyl-1,4-benzoquinon-2-ylmethyl)phenylacetyl]morpholine] | 19 | 19 |

The next lines start with the values.

| IC50 (NO production) [µM] | IC50 (TNF-α production) [µM] | SMILES |
| --- | --- | --- |
| 20 | 20 | COC1=C(OC)C(=O)C(Cc2ccc(CCC(=O)N3CC(C)CC(C)C3)cc2)=C(C)C1=O (stereo not shown) [Example 137] |
| 21 | 26 | COC1=C(OC)C(=O)C(Cc2ccc(CCC(=O)N3CCCC(C)C3)cc2)=C(C)C1=O (stereo not shown) [Example 85] |
| 17 | 25 | COC1=C(OC)C(=O)C(Cc2ccc(CCC(=O)N3CCC[C@H]3C(N)=O)cc2)=C(C)C1=O [Example 106] |
| 13 | 13 | COC1=C(OC)C(=O)C(Cc2ccc(CCC(=O)N3CCC(C)CC3)cc2)=C(C)C1=O [Example 81] |
| 15 | 22 | COC1=C(OC)C(=O)C(Cc2ccc(CCC(=O)N3CCCCC3)cc2)=C(C)C1=O [Example 7, N-[3-[4-(5,6-dimethoxy-3-methyl-1,4-benzoquinon-2-ylmethyl)phenyl]propionyl]piperidine] |
| 6 | 9 | COC1=C(OC)C(=O)C(Cc2ccc(CCC(=O)N3CCCCC3C)cc2)=C(C)C1=O (stereo not shown) [Example 83] |
